From ChEMBL document CHEMBL4364319 (Eur J Med Chem, 2019)
Calls of active or inactive are those of the source. The rule behind the calls is not given here.

Assays:
Dipeptidyl peptidase 8 = Dipeptidyl peptidase 8 (Homo sapiens, UniProt Q6V1X1); experiment: Inhibition of DPP8 (unknown origin) using Gly-Pro-AMC as substrate preincubated for 15 mins followed by substrate addition measured at 60 secs interval for 20 mins by fluorometic method
Dipeptidyl peptidase 9 = Dipeptidyl peptidase 9 (Homo sapiens, UniProt Q86TI2); experiment: Inhibition of DPP9 (unknown origin) using Gly-Pro-AMC as substrate preincubated for 15 mins followed by substrate addition measured at 60 secs interval for 20 mins by fluorometic method
Chain of Dipeptidyl peptidase 9 (Q86TI2 whole entry): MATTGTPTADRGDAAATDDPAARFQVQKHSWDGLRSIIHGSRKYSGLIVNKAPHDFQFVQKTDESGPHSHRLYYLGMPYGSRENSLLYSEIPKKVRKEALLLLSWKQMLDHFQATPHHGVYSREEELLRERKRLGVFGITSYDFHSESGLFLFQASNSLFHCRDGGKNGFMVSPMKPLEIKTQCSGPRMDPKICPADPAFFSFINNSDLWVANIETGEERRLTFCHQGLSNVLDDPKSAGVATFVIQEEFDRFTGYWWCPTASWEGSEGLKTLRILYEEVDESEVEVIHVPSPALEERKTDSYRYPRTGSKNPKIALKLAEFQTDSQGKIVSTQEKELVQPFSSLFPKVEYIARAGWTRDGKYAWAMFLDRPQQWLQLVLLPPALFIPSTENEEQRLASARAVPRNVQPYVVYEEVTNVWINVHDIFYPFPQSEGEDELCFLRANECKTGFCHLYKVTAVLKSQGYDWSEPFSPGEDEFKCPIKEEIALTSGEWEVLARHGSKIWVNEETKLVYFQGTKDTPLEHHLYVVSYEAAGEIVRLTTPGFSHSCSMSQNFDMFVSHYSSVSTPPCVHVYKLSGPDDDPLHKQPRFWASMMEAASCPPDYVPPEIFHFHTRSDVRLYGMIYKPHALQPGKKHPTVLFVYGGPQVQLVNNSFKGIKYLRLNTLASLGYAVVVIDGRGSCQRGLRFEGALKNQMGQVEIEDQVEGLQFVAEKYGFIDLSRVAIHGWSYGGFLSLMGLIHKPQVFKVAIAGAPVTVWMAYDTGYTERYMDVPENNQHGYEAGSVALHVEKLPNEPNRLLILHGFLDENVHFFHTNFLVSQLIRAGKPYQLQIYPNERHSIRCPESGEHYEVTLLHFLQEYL

[1] = Stability in PBS at pH 7.4 assessed as compound remaining at 1 uM after 120 mins by LC-MS/MS analysis relative to control; format: physicochemical; details: read-out: Stability
[2] = Stability in Sprague-Dawley rat plasma assessed as compound remaining at 1 uM measured up to 120 mins by LC-MS/MS analysis relative to control; format: ADME, cell-free; details: read-out: Stability
[3] = Cytotoxicity against human LO2 cells assessed as cell viability at 20 uM after 48 hrs by MTT assay; format: cell-based, L02; details: read-out: Activity
Mus musculus [4] = experiment: Anti-diabetic activity in 12 hrs-fasted ICR mouse assessed as reduction in blood glucose AUC (0 to 120 mins)at 10 mg/kg, po pretreated for 60 mins followed by glucose challenge and measured after 120 mins post glucose challenge by OGTT relative to control; format: functional; design: scale not given: the % may be the effect or the level left
Mus musculus [5] = experiment: Anti-diabetic activity in 8 hrs-fasted C57BL/6 db/db mouse assessed as reduction in blood glucose AUC (0 to 120 mins) at 10 mg/kg, po pretreated for 60 mins followed by glucose challenge and measured after 120 mins post glucose challenge by OGTT relative to control; format: functional; design: scale not given: the % may be the effect or the level left
Mus musculus [6] = experiment: Anti-diabetic activity in 8 hrs-fasted C57BL/6 db/db mouse assessed as reduction in blood glucose AUC (0 to 120 mins) at 3 mg/kg, po pretreated for 60 mins followed by glucose challenge and measured after 120 mins post glucose challenge by OGTT relative to control; format: functional; design: scale not given: the % may be the effect or the level left
Mus musculus [7] = experiment: Anti-diabetic activity in 8 hrs-fasted C57BL/6 db/db mouse assessed as reduction in blood glucose AUC (0 to 120 mins) at 1 mg/kg, po pretreated for 60 mins followed by glucose challenge and measured after 120 mins post glucose challenge by OGTT relative to control; format: functional; design: scale not given: the % may be the effect or the level left
Mus musculus [8] = experiment: Anti-diabetic activity in db/db mouse assessed as reduction in fasting blood glucose leave at 3 mg/kg, po dosed once daily for 3 weeks measured for every 7 days; format: functional, organism-based
Mus musculus [9] = experiment: Anti-diabetic activity in db/db mouse assessed as reduction in fasting blood glucose leave at 10 mg/kg, po dosed once daily for 3 weeks measured for every 7 days; format: functional, organism-based
Mus musculus [10] = experiment: Anti-diabetic activity in db/db mouse assessed as increase in glucose tolerance at 10 mg/kg, po dosed once daily for 3 weeks following 12 hrs fasting and glucose challenge measured up to 120 mins; format: functional, organism-based
Mus musculus [11] = experiment: Anti-diabetic activity in db/db mouse assessed as reduction in blood glucose AUC (0 to 120 mins) at 3 mg/kg, po dosed once daily for 3 weeks following 12 hrs fasting and glucose challenge measured up to 120 mins relative to control; format: functional; design: scale not given: the % may be the effect or the level left
Mus musculus [12] = experiment: Anti-diabetic activity in db/db mouse assessed as reduction in blood glucose AUC (0 to 120 mins) at 10 mg/kg, po dosed once daily for 3 weeks following 12 hrs fasting and glucose challenge measured up to 120 mins relative to control; format: functional; design: scale not given: the % may be the effect or the level left
[13] = Toxicity in db/db mouse assessed as increase in body weight at 3 to 10 mg/kg, po dosed once daily for 3 weeks and measured every day; format: organism-based; details: in vivo, 504 h
[14] = Half life in Sprague-Dawley rat at 10 mg/kg, po via gavage after 48 hrs by LC-MS/MS analysis; format: ADME, organism-based; details: in vivo
[15] = Half life in Sprague-Dawley rat assessed as (R)-2-((8-(3-aminopiperidin-1-yl)-7-(but-2-yn-1-yl)-3-methyl-2,6-dioxo-2,3,6,7-tetrahydro-1H-purin-1-yl)methyl)-5-chlorobenzoic acid level at 10 mg/kg, po via gavage after 48 hrs by LC-MS/MS analysis; format: ADME, organism-based; details: in vivo
[16] = Tmax in Sprague-Dawley rat at 10 mg/kg, po via gavage after 48 hrs by LC-MS/MS analysis; format: ADME, organism-based; details: in vivo
[17] = Tmax in Sprague-Dawley rat assessed as (R)-2-((8-(3-aminopiperidin-1-yl)-7-(but-2-yn-1-yl)-3-methyl-2,6-dioxo-2,3,6,7-tetrahydro-1H-purin-1-yl)methyl)-5-chlorobenzoic acid level at 10 mg/kg, po via gavage after 48 hrs by LC-MS/MS analysis; format: ADME, organism-based; details: in vivo
[18] = Cmax in Sprague-Dawley rat at 10 mg/kg, po via gavage after 48 hrs by LC-MS/MS analysis; format: ADME, organism-based; design: dose 10 mg/kg, route oral; details: in vivo
[19] = Cmax in Sprague-Dawley rat assessed as (R)-2-((8-(3-aminopiperidin-1-yl)-7-(but-2-yn-1-yl)-3-methyl-2,6-dioxo-2,3,6,7-tetrahydro-1H-purin-1-yl)methyl)-5-chlorobenzoic acid level at 10 mg/kg, po via gavage after 48 hrs by LC-MS/MS analysis; format: ADME, organism-based; design: dose 10 mg/kg, route oral; details: in vivo
[20] = AUC (0 to infinity) in Sprague-Dawley rat at 10 mg/kg, po via gavage after 48 hrs by LC-MS/MS analysis; format: ADME, organism-based; design: dose 10 mg/kg, route oral, time infinity; details: in vivo
[21] = AUC (0 to infinity) in Sprague-Dawley rat assessed as (R)-2-((8-(3-aminopiperidin-1-yl)-7-(but-2-yn-1-yl)-3-methyl-2,6-dioxo-2,3,6,7-tetrahydro-1H-purin-1-yl)methyl)-5-chlorobenzoic acid level at 10 mg/kg, po via gavage after 48 hrs by LC-MS/MS analysis; format: ADME, organism-based; design: dose 10 mg/kg, route oral, time infinity; details: in vivo
[22] = Clearance in Sprague-Dawley rat at 10 mg/kg, po via gavage after 48 hrs by LC-MS/MS analysis; format: ADME, organism-based; details: in vivo
[23] = Clearance in Sprague-Dawley rat assessed as (R)-2-((8-(3-aminopiperidin-1-yl)-7-(but-2-yn-1-yl)-3-methyl-2,6-dioxo-2,3,6,7-tetrahydro-1H-purin-1-yl)methyl)-5-chlorobenzoic acid level at 10 mg/kg, po via gavage after 48 hrs by LC-MS/MS analysis; format: ADME, organism-based; details: in vivo
[24] = Oral bioavailability in Sprague-Dawley rat assessed as (R)-2-((8-(3-aminopiperidin-1-yl)-7-(but-2-yn-1-yl)-3-methyl-2,6-dioxo-2,3,6,7-tetrahydro-1H-purin-1-yl)methyl)-5-chlorobenzoic acid level at 10 mg/kg via gavage after 48 hrs by LC-MS/MS analysis; format: ADME, organism-based; details: in vivo
Mus musculus [25] = experiment: Anti-diabetic activity in po dosed 8 hrs-fasted C57BL/6 db/db mouse assessed as increase in glucose tolerance pretreated for 60 mins followed by glucose challenge and measured after 120 mins post glucose challenge by OGTT; format: functional, organism-based
Rattus norvegicus [26] = organism: Rattus norvegicus; experiment: animal or person; details: Sprague-Dawley, po, 12 h, read-out: INH
Rattus norvegicus [27] = organism: Rattus norvegicus; experiment: animal or person; details: Sprague-Dawley, po, 24 h, read-out: INH

Chain of Dipeptidyl peptidase 8 (Q6V1X1 whole entry): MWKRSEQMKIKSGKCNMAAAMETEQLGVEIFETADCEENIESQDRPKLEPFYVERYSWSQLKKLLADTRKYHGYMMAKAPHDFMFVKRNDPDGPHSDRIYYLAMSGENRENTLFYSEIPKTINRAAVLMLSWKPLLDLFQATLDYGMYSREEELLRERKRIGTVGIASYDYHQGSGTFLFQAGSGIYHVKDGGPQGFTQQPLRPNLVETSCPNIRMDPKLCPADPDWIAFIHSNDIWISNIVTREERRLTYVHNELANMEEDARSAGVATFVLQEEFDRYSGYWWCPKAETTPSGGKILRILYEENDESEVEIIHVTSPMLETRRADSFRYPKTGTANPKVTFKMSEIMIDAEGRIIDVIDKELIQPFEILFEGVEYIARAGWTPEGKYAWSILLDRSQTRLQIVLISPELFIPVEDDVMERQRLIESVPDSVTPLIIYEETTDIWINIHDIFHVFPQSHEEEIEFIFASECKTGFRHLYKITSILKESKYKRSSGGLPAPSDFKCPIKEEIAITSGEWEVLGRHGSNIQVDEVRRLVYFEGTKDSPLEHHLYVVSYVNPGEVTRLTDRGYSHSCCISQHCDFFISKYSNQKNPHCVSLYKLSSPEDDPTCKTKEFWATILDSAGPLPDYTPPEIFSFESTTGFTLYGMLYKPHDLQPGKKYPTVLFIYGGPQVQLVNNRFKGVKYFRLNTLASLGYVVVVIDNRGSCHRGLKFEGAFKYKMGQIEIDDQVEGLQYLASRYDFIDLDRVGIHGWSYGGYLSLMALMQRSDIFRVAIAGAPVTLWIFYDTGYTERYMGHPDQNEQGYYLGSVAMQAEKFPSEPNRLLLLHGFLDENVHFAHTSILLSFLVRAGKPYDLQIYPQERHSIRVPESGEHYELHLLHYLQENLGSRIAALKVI

SMILES: CC#CCn1c(N2CCC[C@@H](N)C2)nc2c1c(=O)n(Cc1ccc(Cl)cc1C(=O)OC)c(=O)n2C
- IC50 (Dipeptidyl peptidase 8): > 100 µM
- IC50 (Dipeptidyl peptidase 9): > 100 µM
- remaining at 2 h, 1 µM [1]: 101%
- remaining at 2 h, 1 µM [2]: 65.2%
- viability at 48 h, 20 µM [3]: 90%
- Activity (Mus musculus [4]): 17.43%
- Activity (Mus musculus [5]): 54.7%
- Activity (Mus musculus [6]): 28.8%
- Activity (Mus musculus [7]): 26.4%
- Activity (Mus musculus [8]): Active
- Activity (Mus musculus [9]): Active
- Activity (Mus musculus [10]): Active
- Activity (Mus musculus [11]): 6%
- Activity (Mus musculus [12]): 13.2%
- Activity [13]: Non-Toxic
- half-life [14]: 605 min
- t1/2 [15]: 11.81 h
- Tmax [16]: 1 h
- Tmax [17]: 1 h
- Cmax [18]: 1180 ng/mL
- Cmax [19]: 693.32 µg/L
- AUC [20]: 6.1073 µg·h/mL
- AUC [21]: 3.74605 µg·h/mL
- CL [22]: 0.16 L/h/kg
- CL [23]: 0.27 L/h/kg
- F [24]: 19.46%
- Activity (Mus musculus [25]): Dose-dependent effect
- inhibition in vivo at 10 mg/kg (Rattus norvegicus [26]): 85%
- inhibition in vivo at 10 mg/kg (Rattus norvegicus [27]): 60%
